# Assay results taken from BigSolDB 2.1.
structure (smiles),measurement,setting,value
COc1cc(CO)ccc1O,solubility (mole fraction),"in acetonitrile, 293.15 K",0.0172
same,solubility (mole fraction),"in acetonitrile, 303.15 K",0.0262
same,solubility (mole fraction),"in acetonitrile, 313.15 K",0.0415
same,solubility (mole fraction),"in acetonitrile, 323.15 K",0.0713
same,solubility (mole fraction),"in acetonitrile, 333.15 K",0.127
same,solubility (mole fraction),"in acetonitrile, 343.15 K",0.22
same,solubility (mole fraction),"in ethanol, 293.15 K",0.0442
same,solubility (mole fraction),"in ethanol, 303.15 K",0.0627
same,solubility (mole fraction),"in ethanol, 313.15 K",0.0936
same,solubility (mole fraction),"in ethanol, 323.15 K",0.142
same,solubility (mole fraction),"in ethanol, 333.15 K",0.205
same,solubility (mole fraction),"in ethanol, 343.15 K",0.317
same,solubility (mole fraction),"in ethyl acetate, 293.15 K",0.0176
same,solubility (mole fraction),"in ethyl acetate, 303.15 K",0.0296
same,solubility (mole fraction),"in ethyl acetate, 313.15 K",0.0393
same,solubility (mole fraction),"in ethyl acetate, 323.15 K",0.0682
same,solubility (mole fraction),"in ethyl acetate, 333.15 K",0.1
same,solubility (mole fraction),"in ethyl acetate, 343.15 K",0.163
same,solubility (mole fraction),"in isopentanol, 293.15 K",0.0225
same,solubility (mole fraction),"in isopentanol, 303.15 K",0.0302
same,solubility (mole fraction),"in isopentanol, 313.15 K",0.0447
same,solubility (mole fraction),"in isopentanol, 323.15 K",0.0652
same,solubility (mole fraction),"in isopentanol, 333.15 K",0.0912
same,solubility (mole fraction),"in isopentanol, 343.15 K",0.14
same,solubility (mole fraction),"in isopropanol, 293.15 K",0.0284
same,solubility (mole fraction),"in isopropanol, 303.15 K",0.0418
same,solubility (mole fraction),"in isopropanol, 313.15 K",0.0578
same,solubility (mole fraction),"in isopropanol, 323.15 K",0.0957
same,solubility (mole fraction),"in isopropanol, 333.15 K",0.149
same,solubility (mole fraction),"in isopropanol, 343.15 K",0.237
same,solubility (mole fraction),"in n-butanol, 293.15 K",0.0234
same,solubility (mole fraction),"in n-butanol, 303.15 K",0.0393
same,solubility (mole fraction),"in n-butanol, 313.15 K",0.0538
same,solubility (mole fraction),"in n-butanol, 323.15 K",0.0902
same,solubility (mole fraction),"in n-butanol, 333.15 K",0.134
same,solubility (mole fraction),"in n-butanol, 343.15 K",0.182
same,solubility (mole fraction),"in n-butyl acetate, 293.15 K",0.0098
same,solubility (mole fraction),"in n-butyl acetate, 303.15 K",0.0177
same,solubility (mole fraction),"in n-butyl acetate, 313.15 K",0.027
same,solubility (mole fraction),"in n-butyl acetate, 323.15 K",0.0428
same,solubility (mole fraction),"in n-butyl acetate, 333.15 K",0.0653
same,solubility (mole fraction),"in n-butyl acetate, 343.15 K",0.107
same,solubility (mole fraction),"in n-pentanol, 293.15 K",0.0214
same,solubility (mole fraction),"in n-pentanol, 303.15 K",0.0338
same,solubility (mole fraction),"in n-pentanol, 313.15 K",0.049
same,solubility (mole fraction),"in n-pentanol, 323.15 K",0.0728
same,solubility (mole fraction),"in n-pentanol, 333.15 K",0.102
same,solubility (mole fraction),"in n-pentanol, 343.15 K",0.155
